According to ChEMBL document CHEMBL1149969, “Conformationally restricted inhibitors of the high affinity -glutamate transporter” (Bioorg Med Chem Lett, 1993):

B1: Excitatory amino acid transporter 2 (Rattus norvegicus), P31596 (protein)
chain: MASTEGANNMPKQVEVRMHDSHLSSEEPKHRNLGMRMCDKLGKNLLLSLTVFGVILGAVCGGLLRLAAPIHPDVVMLIAFPGDILMRMLKMLILPLIISSLITGLSGLDAKASGRLGTRAMVYYMSTTIIAAVLGVILVLAIHPGNPKLKKQLGPGKKNDEVSSLDAFLDLIRNLFPENLVQACFQQIQTVTKKVLVAPPSEEANTTKAVISLLNETMNEAPEETKIVIKKGLEFKDGMNVLGLIGFFIAFGIAMGKMGEQAKLMVEFFNILNEIVMKLVIMIMWYSPLGIACLICGKIIAIKDLEVVARQLGMYMITVIVGLIIHGGIFLPLIYFVVTRKNPFSFFAGIFQAWITALGTASSAGTLPVTFRCLEDNLGIDKRVTRFVLPVGATINMDGTALYEAVAAIFIAQMNGVILDGGQIVTVSLTATLASIGAASIPSAGLVTMLLILTAVGLPTEDISLLVAVDWLLDRMRTSVNVVGDSFGAGIVYHLSKSELDTIDSQHRMHEDIEMTKTQSVYDDTKNHRESNSNQCVYAAHNSVVIDECKVTLAANGKSADCSVEEEPWKREK

Assays:
[1] = target: Excitatory amino acid transporter 2 (Rattus norvegicus) (UniProt P31596); test: Attenuation of the sodium-dependent uptake of [3H]D-aspartate into synaptosomes prepared from rat forebrain at 250 uM.; assay type: subcellular; details: Brain
[2] = target: Excitatory amino acid transporter 2 (Rattus norvegicus) (UniProt P31596); test: Tested for the ability to attenuate the sodium-dependent uptake of [3H]D-aspartate (5 uM) into synaptosomes prepared from rat forebrain at 25 uM; assay type: subcellular; details: Brain
[3] = The compound was tested for binding affinity towards Excitatory amino acid receptors of rat brain synaptosomes; IE means ineffective; assay type: subcellular
[4] = species on record: Rattus norvegicus; test: Tested for the competitive inhibitory activity against D-aspartate transport in rat synaptosomes; assay type: functional, Brain
[5] = compound: O=C(O)[C@@H]1CN[C@@H](C(=O)O)C1; test: Tested for the competitive inhibitory activity against L-glutamate transport in rat synaptosomes; assay type: subcellular; details: Brain

| Molecule | Control [1] | Control [2] | also measured |
| --- | --- | --- | --- |
| O=C(O)[C@@H]1CN[C@H]1C(=O)O (stereo in doubt; form 1) | 109% |  |  |
| O=C(O)[C@@H]1CN[C@H](C(=O)O)C1 (stereo in doubt; form 1) | 105% |  |  |
| O=C(O)[C@@H]1CN[C@@H](C(=O)O)C1 (stereo in doubt; form 2) | 54% | 88% |  |
| CCOCC1[C@H](C(=O)O)CN[C@H]1C(=O)O (stereo partly drawn) | 55% |  |  |
| N[C@@H](CCC(=O)O)C(=O)O |  | 40% |  |
| O=C(O)[C@@H]1CN[C@H](C(=O)O)C1 (stereo in doubt; form 2) | 36% | 82% |  |
| O=C(O)[C@H]1NC[C@H]1C(=O)O (stereo in doubt; form 1) | 53% | 96% |  |
| O=C(O)[C@@H]1CN[C@@H](C(=O)O)C1 (stereo in doubt; form 1) [listing 1 of 2 here] |  |  | Ki [3]: Ineffective; Ki [4]: 1.3 µM |
| O=C(O)C[C@@H]1CN[C@H](C(=O)O)C1 | 74% |  |  |
| O=C(O)CC1[C@H](C(=O)O)CN[C@H]1C(=O)O (stereo partly drawn) | 95% |  |  |
| O=C(O)C[C@H]1CCN[C@@H]1C(=O)O | 74% |  |  |
| O=C(O)[C@H]1NCC[C@H]1C(=O)O (stereo in doubt; form 2) | 108% |  |  |
| C=C(C)[C@H]1CN[C@H](C(=O)O)[C@H]1CC(=O)O | 39% |  |  |
| O=C(O)[C@H]1NCC[C@H]1C(=O)O (stereo in doubt; form 1) | 38% | 94% |  |
| O=C(O)[C@@H]1CCN[C@H]1C(=O)O (stereo in doubt; form 2) | 107% |  |  |
| O=C(O)[C@H]1NC[C@H]1C(=O)O (stereo in doubt; form 2) | 98% |  |  |
| O=C(O)[C@@H]1CN[C@@H](C(=O)O)C1 (stereo in doubt; form 1) [listing 2 of 2 here] | 0% | 18% |  |
| O=C(O)[C@@H]1CN[C@H]1C(=O)O (stereo in doubt; form 2) | 100% |  |  |
| O=C(O)[C@@H]1CCN[C@H]1C(=O)O (stereo in doubt; form 1) | 81% |  |  |
| CC(C)[C@H]1CN[C@H](C(=O)O)[C@H]1CC(=O)O (single isomer, unassigned) | 25% | 83% |  |
| B1 |  |  | Km [5]: 3 µM |
